Measured values as given in PMC3408453, “A Foldamer-Dendrimer Conjugate Neutralizes Synaptotoxic β-Amyloid Oligomers” (PLoS ONE, 2012).

What was measured:
[1] = target: T1, HMW fraction of Aβ oligomers (Homo sapiens, UniProt P05067); assay: Concentration-dependent dot blot with SEC-separated HMW Aβ oligomer fraction; format: binding; details: 10 µg ligand spotted, BAM10 1∶500
T1 construct: a depsipeptide derivative of Aβ(1–42) was utilized; made in house; host or cells: chemical peptide synthesis (no expression host)
Experimental: (§1) ITC measurement for 7 indicated fractional stoichiometry for the low nM binding, which pointed to that the high affinity interaction involves only a fraction of the oligomeric Aβ sample. To localize the strongly binding fraction in the mixture, size exclusion chromatographic (SEC) separation was carried out and the resulting Aβ oligomer fractions were tested with 7 in concentration-dependent dot blot experiments. Two dominant peaks were found in the SEC chromatogram corresponding to the high molecular weight (HMW) and low molecular weight (LMW) components (Figure 7). […] In control experiments, specific and/or preferential binding of Aβ by the membrane itself were ruled out. These findings were in line with the ITC and ELISA results. It could be concluded that 7 preferentially bound to the LMW fraction at low nM concentration and also interacted with the HMW fraction at sub-µM level.
(§2) Figure 7 Selective binding to the LMW Aβ oligomers in the nM range. Size exclusion chromatographic separation of the HMW and LMW fractions of the Aβ oligomeric sample (top panel). Concentration-dependent dot blot experiments performed with the HMW (A) and the LMW fractions (B). The ligand loadings were 10 µg aliquots of 7, and the sequence specific antibody BAM10 (1∶500) was utilized. Lanes within the panels are parallel experiments. […]

Aβ oligomers [2] = target: T2, Aβ oligomers (Homo sapiens, UniProt P05067); assay: Transmission electron microscopy of Aβ oligomers with ligand; details: 72 µM Aβ oligomer + 36 µM ligand
T2 construct: a depsipeptide derivative of Aβ(1–42) was utilized; made in house; host or cells: chemical peptide synthesis (no expression host)
Experimental: The concentration-dependent increase of the particle size described above raised the question if this phenomenon was linked to an accelerated fibrillization or to any form of conformational remodeling of the Aβ oligomers. […] The shape of the aggregates was unequivocally different from that of the mature fibrils.
Figure 8 Affinity precipitation as detected by TEM. (A) TEM image of the 72 µM Aβ oligomer. (B) TEM image of the 72 µM Aβ oligomer upon addition of 36 µM 7.
Oligomer solution was placed on formvar-carbon-coated 400-mesh copper grids (Electron Microscopy Sciences, Washington, PA) and stained negatively with uranyl acetate. The aggregates were characterized by TEM on a Philips CM 10 transmission electron microscope (FEI Company, Hillsboro, Oregon, USA) operating at 100 kV. Images were taken with a Megaview II Soft Imaging System, routinely at magnifications of ×46000 and ×64000, and analyzed with an AnalySis® 3.2 software package (Soft Imaging System GmbH, Münster, Germany).

[3] = target: T3, LMW fraction of Aβ oligomers (Homo sapiens, UniProt P05067); assay: Concentration-dependent dot blot with SEC-separated LMW Aβ oligomer fraction; format: binding; details: 10 µg ligand spotted, BAM10 1∶500
T3 construct: a depsipeptide derivative of Aβ(1–42) was utilized; made in house; host or cells: chemical peptide synthesis (no expression host)
Experimental: as §1, §2

Aβ oligomers [4] = target: T2, Aβ oligomers; assay: Ligand-induced precipitation during ITC titration, followed by DLS; details: 72 μM Aβ oligomer
Experimental: Binding of 7 to the Aβ oligomers was monitored by means of isothermal titration calorimetry (ITC). […] The titrations were run at 288 K in order to improve the signal to noise ratio, and just above the precipitation limit as the ITC method is sensitive to the thermal noise caused by the stirring of large particles. […] These values strongly supported tight binding between the Aβ oligomer species and 7.
For DLS measurements, 500 µL Aβ(1–42) solution (c = 72 µM) was prepared in PBS, and placed in a low–volume sizing cell. Size distribution was measured at 25°C on a Malvern Zetasizer Nano ZS Instrument (Malvern Instruments Ltd. Worcestershire, UK) equipped with a He-Ne laser (633 nm) by means of Non-Invasive Back Scatter (NIBS®) technology, which involves detection of the scattered light at an angle of 173°. A titration routine was formulated consisting of 12 independent measurements with a 2-min delay after each. The calculated amount of 7 solution was added to the Aβ after every second measurement. During the titration, the molar quantity of 7 varied between 0–35 µM. For a single measurement, the correlation function and distribution of the apparent hydrodynamic diameter (dh) over the scattered intensity of the particles were determined on the basis of 14 scans. […]

T2 sequence (P05067 672-713 limits assumed): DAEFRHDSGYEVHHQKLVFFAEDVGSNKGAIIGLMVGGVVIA
T3 sequence (P05067 672-713 limits assumed): as above
T1 sequence (P05067 672-713 limits assumed): as above

Question: For `N=C(N)NCCC[C@@H](CC(=O)N[C@H]1CCCC[C@@H]1C(=O)N[C@H]1CCCC[C@@H]1C(=O)N[C@@H](CC(=O)O)CC(=O)N[C@H]1CCCC[C@@H]1C(=O)NCC(=O)NCC(=O)N[C@@H](CSC1CC(=O)N(CCC(=O)NCCNC(=O)CCN(CCC(=O)NCCNC(=O)CCN2C(=O)CC(SC[C@H](NC(=O)CNC(=O)CNC(=O)[C@H]3CCCC[C@@H]3NC(=O)C[C@H](CC(=O)O)NC(=O)[C@H]3CCCC[C@@H]3NC(=O)[C@H]3CCCC[C@@H]3NC(=O)C[C@H](CCCNC(=N)N)NC(=O)[C@H]3CCCC[C@@H]3N)C(N)=O)C2=O)CCN(CCC(=O)NCCNC(=O)CCN2C(=O)CC(SC[C@H](NC(=O)CNC(=O)CNC(=O)[C@H]3CCCC[C@@H]3NC(=O)C[C@H](CC(=O)O)NC(=O)[C@H]3CCCC[C@@H]3NC(=O)[C@H]3CCCC[C@@H]3NC(=O)C[C@H](CCCNC(=N)N)NC(=O)[C@H]3CCCC[C@@H]3N)C(N)=O)C2=O)CCC(=O)NCCNC(=O)CCN2C(=O)CC(SC[C@H](NC(=O)CNC(=O)CNC(=O)[C@H]3CCCC[C@@H]3NC(=O)C[C@H](CC(=O)O)NC(=O)[C@H]3CCCC[C@@H]3NC(=O)[C@H]3CCCC[C@@H]3NC(=O)C[C@H](CCCNC(=N)N)NC(=O)[C@H]3CCCC[C@@H]3N)C(N)=O)C2=O)C1=O)C(N)=O)NC(=O)[C@H]1CCCC[C@@H]1N` (stereo partly shown) [Compound 7], which “Dot blot binding of HMW Aβ oligomer fraction” value [1] is on record?
Answer: stained with just below micromolar affinity

Question: And the “TEM: effect on Aβ oligomer particle morphology” value (Aβ oligomers [2])?
Answer: caused association of the spherical oligomers a few nm in size into bundles of aggregates in the μm range

Question: And the “Dot blot binding of LMW Aβ oligomer fraction” value [3]?
Answer: saturation of binding in the low nanomolar region

Question: And the “Concentration-dependent precipitation of Aβ oligomers during titration (ITC/DLS)” value (Aβ oligomers [4])?
Answer: the precipitation started just before the equivalence point of the second stage
